Source: patent US11427556B2, “Urea derivatives as inhibitors of ASK1” (Hepagene Therapeutics (HK) Limited, priority 2017, dated 2022)
Like-named read-outs stand apart in the source and are kept apart here.

Target: T1, Recombinant human ASK1 kinase (Homo sapiens, UniProt Q99683)
T1 construct: purchased Invitrogen Inc
T1 sequence (Q99683 1-1374): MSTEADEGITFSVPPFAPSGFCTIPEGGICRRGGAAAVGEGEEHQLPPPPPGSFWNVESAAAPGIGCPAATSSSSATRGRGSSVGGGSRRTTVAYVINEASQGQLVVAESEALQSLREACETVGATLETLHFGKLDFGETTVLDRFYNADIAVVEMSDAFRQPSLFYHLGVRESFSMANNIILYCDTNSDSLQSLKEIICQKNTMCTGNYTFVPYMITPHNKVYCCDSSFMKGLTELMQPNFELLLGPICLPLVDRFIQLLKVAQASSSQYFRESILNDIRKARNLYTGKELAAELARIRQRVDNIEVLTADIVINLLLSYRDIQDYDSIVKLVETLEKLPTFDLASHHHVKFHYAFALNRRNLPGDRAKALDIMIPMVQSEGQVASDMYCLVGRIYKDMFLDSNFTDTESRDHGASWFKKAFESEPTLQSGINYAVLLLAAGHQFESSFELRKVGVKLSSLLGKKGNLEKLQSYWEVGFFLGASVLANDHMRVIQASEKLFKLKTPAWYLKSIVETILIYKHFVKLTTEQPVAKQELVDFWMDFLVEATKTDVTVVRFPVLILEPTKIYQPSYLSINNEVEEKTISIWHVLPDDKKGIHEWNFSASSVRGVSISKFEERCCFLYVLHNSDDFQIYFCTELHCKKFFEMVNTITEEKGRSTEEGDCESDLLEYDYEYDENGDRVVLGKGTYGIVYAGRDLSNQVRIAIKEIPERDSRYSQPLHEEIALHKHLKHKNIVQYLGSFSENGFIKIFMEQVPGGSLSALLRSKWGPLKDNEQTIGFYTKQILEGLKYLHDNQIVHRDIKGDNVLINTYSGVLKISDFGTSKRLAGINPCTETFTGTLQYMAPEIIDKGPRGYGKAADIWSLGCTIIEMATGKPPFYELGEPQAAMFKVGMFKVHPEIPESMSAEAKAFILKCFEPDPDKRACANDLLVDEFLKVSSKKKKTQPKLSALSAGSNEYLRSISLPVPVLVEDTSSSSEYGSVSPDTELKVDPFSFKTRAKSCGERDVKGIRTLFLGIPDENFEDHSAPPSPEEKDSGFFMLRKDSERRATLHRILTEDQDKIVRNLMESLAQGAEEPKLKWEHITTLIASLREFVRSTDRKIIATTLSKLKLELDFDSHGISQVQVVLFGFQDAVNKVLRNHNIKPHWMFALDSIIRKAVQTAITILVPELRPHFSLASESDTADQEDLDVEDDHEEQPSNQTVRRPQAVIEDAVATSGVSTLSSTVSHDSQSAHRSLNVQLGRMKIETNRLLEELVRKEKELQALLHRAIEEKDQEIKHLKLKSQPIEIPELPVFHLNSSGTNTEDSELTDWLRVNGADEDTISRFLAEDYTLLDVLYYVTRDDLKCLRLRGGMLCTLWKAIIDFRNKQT
Assay: ASK1 kinase HTRF assay (HTRF KinEASE-STK, phosphorylation of biotinylated peptide substrate)
Type: biochemical
Experimental: Reagents: Recombinant human ASK1 kinase was from Invitrogen Inc. HTRF KinEASETM-STK S3 kit was obtained from Cisbio (Bedford, Mass.). All other reagents were of the highest grade commercially available.
Assay: The assay measures the phosphorylation level of a biotinylatd peptide substrate by the ASK1 kinase using HTRF detection. ASK1 kinase assay is based on HTRF KinEASETM-STK manual from Cisbio. Test compound, 1 uM STK-substrate-biotin, 3 nM of ASK1 kinase are incubated with 1*Kinase buffer with 5 mM MgCl2 and 1 mM DTT.

[1] = 3 nM ASK1 kinase, 1 uM STK-substrate-biotin, HTRF detection, read-out: EC50

Row | EC50 [1] [nM] | EC50 [nM] | Structure (SMILES)
1 | 50 to 500 |  | COCC(C)n1cnnc1-c1cccc(NC(=O)Nc2ccccn2)n1 (centres unmarked) [Compound I-031]
2 |  | 50 to 500 | CC(C)n1cnnc1-c1cccc(NC(=O)Nc2cccnc2)n1 [Compound I-032]
3 |  | 50 to 500 | CC(C)n1cnnc1-c1cccc(NC(=O)Nc2ccncc2)n1 [Compound I-033]
4 | 50 to 500 |  | Cc1ccc(NC(=O)Nc2cccc(-c3nncn3C3CC3)n2)nc1 [Compound I-034]
5 | < 50 |  | Cc1ccc(NC(=O)Nc2cccc(-c3nncn3C(C)CO)n2)nc1 (centres unmarked) [Compound I-035]
6 | < 50 |  | Cc1ccc(NC(=O)Nc2cccc(-c3nncn3[C@H](C)CO)n2)nc1 [Compound I-036]
7 | 50 to 500 |  | Cc1ccc(NC(=O)Nc2cccc(-c3nncn3[C@@H](C)CO)n2)nc1 [Compound I-037]
8 | < 50 |  | Cc1ccnc(NC(=O)Nc2cccc(-c3nncn3C(C)C)n2)c1 [Compound I-038]
9 | < 50 |  | Cc1cccnc1NC(=O)Nc1cccc(-c2nncn2C(C)C)n1 [Compound I-039]
10 | < 50 |  | Cc1cccc(NC(=O)Nc2cccc(-c3nncn3C(C)C)n2)n1 [Compound I-040]
11 | 50 to 500 |  | Cc1ccc(NC(=O)Nc2cccc(-c3nncn3C(C)C)n2)cn1 [Compound I-041]
12 | < 50 |  | CCc1ccnc(NC(=O)Nc2cccc(-c3nncn3C(C)C)n2)c1 [Compound I-042]
13 | < 50 |  | Cc1cnc(NC(=O)Nc2cccc(-c3nncn3C(C)C)n2)cc1C [Compound I-043]
14 | < 50 |  | CC(C)c1ccc(NC(=O)Nc2cccc(-c3nncn3C(C)C)n2)nc1 [Compound I-044]
15 | < 50 |  | CC(C)c1ccnc(NC(=O)Nc2cccc(-c3nncn3C(C)C)n2)c1 [Compound I-045]
16 | < 50 |  | CC(C)n1cnnc1-c1cccc(NC(=O)Nc2ccc(C3CC3)cn2)n1 [Compound I-046]
17 | < 50 |  | CC(C)n1cnnc1-c1cccc(NC(=O)Nc2cc(C3CC3)ccn2)n1 [Compound I-047]
18 | < 50 |  | CC(C)n1cnnc1-c1cccc(NC(=O)Nc2cc(C3CCCC3)ccn2)n1 [Compound I-048]
19 | < 50 |  | CC(C)n1cnnc1-c1cccc(NC(=O)Nc2cc(C3CCCCC3)ccn2)n1 [Compound I-049]
20 | < 50 |  | CC(C)n1cnnc1-c1cccc(NC(=O)Nc2cc(C3CCNCC3)ccn2)n1 [Compound I-050]
21 | < 50 |  | COc1ccc(NC(=O)Nc2cccc(-c3nncn3C(C)C)n2)nc1 [Compound I-051]
22 | < 50 |  | COc1ccnc(NC(=O)Nc2cccc(-c3nncn3C(C)C)n2)c1 [Compound I-052]
23 | < 50 |  | COc1ccnc(NC(=O)Nc2cccc(-c3nncn3[C@H](C)CO)n2)c1 [Compound I-053]
24 | 50 to 500 |  | COc1ccnc(NC(=O)Nc2cccc(-c3nncn3[C@@H](C)CO)n2)c1 [Compound I-054]
25 | < 50 |  | COc1cccnc1NC(=O)Nc1cccc(-c2nncn2C(C)C)n1 [Compound I-055]

The next lines start with the molecule.

Row | Structure (SMILES) | EC50 [1] [nM] | EC50 [nM]
26 | Cc1ccc(NC(=O)Nc2cccc(-c3nncn3C(C)C)n2)nc1 [Compound I-001, 1-(6-(4-Isopropyl-4H-1,2,4-triazol-3-yl)pyridin-2-yl)-3-(5-methylpyridin-2-yl) urea] | < 50 | 
27 | C[C@H](CO)n1cnnc1-c1cccc(NC(=O)Nc2cc(-c3ccc(C4CC4)nc3)ccn2)n1 [Compound I-002, 3-[4-(6-Cyclopropylpyridin-3-yl)pyridin-2-yl]-1-(6-{4-[(2R)-1-hydroxypropan-2-yl]-4H-1,2,4-triazol-3-yl}pyridin-2-yl)urea] | < 50 | 
28 | CC(n1cnnc1-c1cccc(NC(=O)Nc2ccccn2)n1)C(F)(F)F (centres unmarked) [Compound I-003, 3-(Pyridin-2-yl)-1-[6-[4-(1,1,1-trifluoropropan-2-yl)-4H-1,2,4-triazol-3-yl]pyridin-2-yl]urea] | < 50 | 
29 | CC(C)n1cnnc1-c1cccc(NC(=O)Nc2cc(NC(=O)c3ccccc3)ccn2)n1 [Compound I-004, N-(2-(3-(6-(4-Isopropyl-4H-1,2,4-triazol-3-yl)pyridin-2-yl)ureido)pyridin-4-yl)benzamide] | < 50 | 
30 | CC(C)n1cnnc1-c1cccc(NC(=O)Nc2cc(N3CCN(C)CC3)ccn2)n1 [Compound I-005, 1-(6-(4-Isopropyl-4H-1,2,4-triazol-3-yl)pyridin-2-yl)-3-(4-(4-methylpiperazin-1-yl)pyridin-2-yl)urea] | < 50 | 
31 | CC(C)n1cnnc1-c1cccc(NC(=O)Nc2cc(C(=O)N3CCc4ccccc4C3)ccn2)n1 [Compound I-006, 1-(6-(4-Isopropyl-4H-1,2,4-triazol-3-yl)pyridin-2-yl)-3-(4-(1,2,3,4-tetrahydroisoquinoline-2-carbonyl)pyridin-2-yl)urea] | < 50 | 
32 | C[C@H](CO)n1cnnc1-c1cccc(NC(=O)Nc2cc(C(=O)N3CCC(C)(C)CC3)ccn2)n1 [Compound I-007, (R)-1-(4-(4,4-Dimethylpiperidine-1-carbonyl)pyridin-2-yl)-3-(6-(4-(1-hydroxypropan-2-yl)-4H-1,2,4-triazol-3-yl)pyridin-2-yl)urea] | < 50 | 
33 | CC(C)(C)n1cnnc1-c1cccc(NC(=O)Nc2cc(C(=O)N3CCCCC3)ccn2)n1 [Compound I-008, 3-[6-(4-tert-Butyl-4H-1,2,4-triazol-3-yl)pyridin-2-yl]-1-[4-(piperidine-1-carbonyl)pyridin-2-yl]urea] | < 50 | 
34 | CC(C)n1cnnc1-c1cccc(NC(=O)Nc2ccc(C(N)=O)cn2)n1 [Compound I-009, 6-(3-(6-(4-Isopropyl-4H-1,2,4-triazol-3-yl)pyridin-2-yl)ureido)nicotinamide] | < 50 | 
35 | CC(=O)OC[C@@H](C)n1cnnc1-c1cccc(NC(=O)Nc2cc(C(=O)N3CCCCC3)ccn2)n1 [Compound I-012, (2R)-2-[3-[6-([[4-(Piperidine-1-carbonyl)pyridin-2-yl]carbamoyl]amino)pyridin-2-yl]-4H-1,2,4-triazol-4-yl]propyl acetate] | 50 to 500 | 
36 | CC(C)[C@H](N)C(=O)OC[C@@H](C)n1cnnc1-c1cccc(NC(=O)Nc2cc(C(=O)N3CCCCC3)ccn2)n1 [Compound I-013, (2R)-2-[3-[6-([[4-(Piperidine-1-carbonyl)pyridin-2-yl]carbamoyl]amino)pyridin-2-yl]-4H-1,2,4-triazol-4-yl]propyl (2S)-2-amino-3-methylbutanoate] | < 50 | 
37 | CC(C)n1cnnc1-c1cccc(NC(=O)Nc2cc(S(=O)(=O)Nc3ccccc3)ccn2)n1 [Compound I-014, 1-[4-(Phenylsulfamoyl)pyridin-2-yl]-3-[6-[4-(propan-2-yl)-4H-1,2,4-triazol-3-yl]pyridin-2-yl]urea] | < 50 | 
38 | CC(C)n1cnnc1-c1cccc(NC(=O)Nc2cc(NS(=O)(=O)c3ccccc3)ccn2)n1 [Compound I-015, 3-(4-Benzenesulfonamidopyridin-2-yl)-1-[6-[4-(propan-2-yl)-4H-1,2,4-triazol-3-yl]pyridin-2-yl]urea] | < 50 | 
39 | CC(C)n1cnnc1-c1cccc(NC(=O)Nc2ccccc2)n1 [Compound I-016] |  | 50 to 500
40 | Cc1ccc(NC(=O)Nc2cccc(-c3nncn3C(C)C)n2)cc1 [Compound I-017] | 50 to 500 | 
41 | Cc1ccc(NC(=O)Nc2cccc(-c3nncn3C(C)C)n2)c(F)c1 [Compound I-018] | 50 to 500 | 
42 | Cc1cc(F)c(NC(=O)Nc2cccc(-c3nncn3C(C)C)n2)cc1-n1cnc(C2CC2)c1 [Compound I-020] | 500 to 5000 | 
43 | CC(C)n1cnnc1-c1cccc(NC(=O)Nc2ccccn2)n1 [Compound I-025] |  | < 50
44 | C[C@H](CO)n1cnnc1-c1cccc(NC(=O)Nc2ccccn2)n1 [Compound I-026] | < 50 | 
45 | C[C@@H](CO)n1cnnc1-c1cccc(NC(=O)Nc2ccccn2)n1 [Compound I-027] | 50 to 500 | 
46 | CCC(C)n1cnnc1-c1cccc(NC(=O)Nc2ccccn2)n1 (centres unmarked) [Compound I-028] | < 50 | 
47 | CC(CN)n1cnnc1-c1cccc(NC(=O)Nc2ccccn2)n1 (centres unmarked) [Compound I-030] | 50 to 500 | 
